One assay deals with AChE (Homo sapiens, UniProt P22303). The assay can be described thus: AChE inhibition, Ellman colorimetric method. The settings on record: ratio of AChE IC50 values. The class given is biochemical. (In general: DTNB colorimetry detects thiols as they appear.)
Another assay addresses BuChE (Homo sapiens, UniProt P06276). The assay can be described thus: BuChE inhibition, Ellman colorimetric method. The class given is biochemical. The settings on record: ratio of BuChE IC50 values.

Each structure is given as a SMILES string.

Sequence of BuChE (P06276 29-602): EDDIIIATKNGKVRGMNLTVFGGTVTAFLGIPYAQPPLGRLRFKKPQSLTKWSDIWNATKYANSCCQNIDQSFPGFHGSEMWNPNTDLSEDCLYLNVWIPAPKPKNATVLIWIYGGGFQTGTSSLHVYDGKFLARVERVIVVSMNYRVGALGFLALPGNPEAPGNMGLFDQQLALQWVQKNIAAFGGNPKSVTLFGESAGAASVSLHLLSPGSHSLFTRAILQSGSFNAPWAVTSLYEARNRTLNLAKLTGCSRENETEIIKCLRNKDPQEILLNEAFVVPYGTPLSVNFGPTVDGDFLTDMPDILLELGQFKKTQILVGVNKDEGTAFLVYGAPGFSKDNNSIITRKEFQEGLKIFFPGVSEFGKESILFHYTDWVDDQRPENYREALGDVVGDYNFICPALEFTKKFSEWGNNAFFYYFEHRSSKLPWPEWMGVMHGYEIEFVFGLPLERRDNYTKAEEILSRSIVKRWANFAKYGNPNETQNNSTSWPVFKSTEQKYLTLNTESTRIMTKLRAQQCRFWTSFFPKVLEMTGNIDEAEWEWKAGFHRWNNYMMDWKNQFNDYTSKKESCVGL
Sequence of AChE (P22303 32-614): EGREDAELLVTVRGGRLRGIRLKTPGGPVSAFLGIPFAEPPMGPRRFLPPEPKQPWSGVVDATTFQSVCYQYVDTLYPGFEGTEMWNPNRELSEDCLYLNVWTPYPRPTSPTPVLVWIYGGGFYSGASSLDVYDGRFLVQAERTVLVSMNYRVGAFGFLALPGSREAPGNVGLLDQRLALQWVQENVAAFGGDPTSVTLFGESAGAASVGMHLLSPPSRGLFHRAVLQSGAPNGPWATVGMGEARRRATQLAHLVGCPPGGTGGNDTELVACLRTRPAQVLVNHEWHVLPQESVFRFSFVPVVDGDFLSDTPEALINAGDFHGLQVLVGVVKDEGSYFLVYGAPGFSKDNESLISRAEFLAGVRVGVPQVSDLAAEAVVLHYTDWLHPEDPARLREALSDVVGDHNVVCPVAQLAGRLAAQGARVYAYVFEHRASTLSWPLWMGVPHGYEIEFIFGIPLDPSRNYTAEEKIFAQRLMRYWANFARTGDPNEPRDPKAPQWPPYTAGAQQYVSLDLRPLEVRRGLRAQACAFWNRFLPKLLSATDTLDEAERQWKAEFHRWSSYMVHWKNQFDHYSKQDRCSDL

In the case of `CS(=O)(=O)n1cc(Br)c(=O)[nH]c1=O` [Compound 5, 5-Bromo-1-methanesulfonyl-1H-pyrimidine-2,4-dione], the “fold decrease of AChE inhibitory activity, mesylate vs toluene-4-sulfonyl group” value on AChE (5 vs 4) is given as 1.26 fold.

With `O=c1[nH]cc(Br)c(=O)[nH]1` [Compound 3, 5-bromo-1H-pyrimidine-2,4-dione], the “fold weaker BuChE inhibitor compared to uracil derivative 4” value at BuChE (vs 4) stood at 2.13 fold.

Consider `Cc1ccc(S(=O)(=O)n2cc(Br)c(=O)[nH]c2=O)cc1` [Compound 4, 5-Bromo-1-(toluene-4-sulfonyl)-1H-pyrimidine-2,4-dione], for which the “fold stronger AChE inhibitory profile compared to uracil 3” value at AChE (vs 3) amounted to 1.71 fold. In addition, the “fold active compared to neostigmine (AChE)” value on AChE (vs neostigmine) worked out at 1.54 fold. Moreover, the “fold better BuChE inhibitor compared to 5” value on BuChE (vs 5) stood at 1.42 fold. The “fold less active compared to neostigmine (BuChE)” value on BuChE (vs neostigmine) was 1.63 fold.

The values are drawn from article PMC6327988 (Journal of Enzyme Inhibition and Medicinal Chemistry, 2019).
